Measured values reported in patent US11311520B2, “Substituted dihydroimidazopyridinediones as MKNK1 and MKNK2 inhibitors” (Bayer Pharma Aktiengesellschaft, priority 2017, dated 2022).

Molecular target: human full-length MKNK1 (Homo sapiens (Human), UniProt Q9BUB5, T344D)
Assay: MKNK1 kinase high ATP assay (TR-FRET)
Assay type: biochemical
Conditions: 2 mM ATP, 15 min preincubation with enzyme, GST-MKNK1 (T344D)
How it was run: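 GST-tagged full-length human MKNK1 (1-424, T344D, baculovirus-expressed) preincubated 15 min at 22 °C with compound, then reacted 30 min at 22 °C with 2 mM ATP and 0.06 μM biotinylated peptide (final) in HEPES pH 7.5. Phospho-substrate by TR-FRET (665/622 nm ratio), normalised to no-inhibitor and no-enzyme controls.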

Chain of human full-length MKNK1 (Q9BUB5 other isoform, or with tags, fused parts or gaps T344D): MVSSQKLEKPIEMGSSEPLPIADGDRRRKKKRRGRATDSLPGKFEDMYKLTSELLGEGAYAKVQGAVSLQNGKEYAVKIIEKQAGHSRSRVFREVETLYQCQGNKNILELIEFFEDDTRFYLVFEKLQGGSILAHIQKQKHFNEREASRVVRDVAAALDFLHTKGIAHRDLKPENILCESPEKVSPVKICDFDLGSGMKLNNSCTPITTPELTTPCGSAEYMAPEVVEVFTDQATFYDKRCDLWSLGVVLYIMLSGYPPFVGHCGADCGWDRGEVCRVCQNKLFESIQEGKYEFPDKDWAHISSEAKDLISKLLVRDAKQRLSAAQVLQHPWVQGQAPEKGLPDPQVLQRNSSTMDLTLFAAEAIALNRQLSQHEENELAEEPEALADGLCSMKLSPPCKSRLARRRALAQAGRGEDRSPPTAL

Q: How did the IC50 turn out when `Cc1cc(Nc2ncnc3sc(C(=O)N4CC(C#N)C4)cc23)c(=O)n2c1C(=O)NC21CCCC1` [Example 61, 1-({4-[(8′-Methyl-1′,5′-dioxo-1′,5′-dihydro-2′H-spiro[cyclopentane-1,3′-imidazo[1,5-a]pyridin]-6′-yl)amino]thieno[2,3-d]pyrimidin-6-yl}carbonyl)azetidine-3-carbonitrile] was run?
A: Its IC50 is 0.0059 µM.

Q: Which IC50 does the source give for `Cc1cc(Nc2ncnc3sc(C(=O)N4CC(NC(=O)OC(C)(C)C)C4)cc23)c(=O)n2c1C(=O)NC21CCCC1` [Example 62, tert-Butyl [1-({4-[(8′-methyl-1′,5′-dioxo-1′,5′-dihydro-2′H-spiro[cyclopentane-1,3′-imidazo[1,5-a]pyridin]-6′-yl)amino]thieno[2,3-d]pyrimidin-6-yl}carbonyl)azetidin-3-yl]carbamate] here?
A: The IC50 was 0.004 µM.

Q: How did the IC50 turn out when `Cc1cc(Nc2ncnc3sc(C(=O)N4CC[C@@H](N(C)C)C4)cc23)c(=O)n2c1C(=O)NC21CCCC1` [Example 63, 6′-[(6-{[(3R)-3-(Dimethylamino)pyrrolidin-1-yl]carbonyl}thieno[2,3-d]pyrimidin-4-yl)amino]-8′-methyl-2′H-spiro[cyclopentane-1,3′-imidazo[1,5-a]pyridine]-1′,5′-dione] was run?
A: Its IC50 is 0.0038 µM.

Q: For `Cc1cc(Nc2ncnc3sc(C(=O)N4CCC(N(C)C)CC4)cc23)c(=O)n2c1C(=O)NC21CCCC1` [Example 64, 6′-[(6-{[4-(Dimethylamino)piperidin-1-yl]carbonyl}thieno[2,3-d]pyrimidin-4-yl)amino]-8′-methyl-2′H-spiro[cyclopentane-1,3′-imidazo[1,5-a]pyridine]-1′,5′-dione], which IC50 is on record?
A: Its IC50 is 0.0055 µM.

Q: For `Cc1cc(Nc2ncnc3sc(C(=O)N4C[C@H]5C[C@@H]4CO5)cc23)c(=O)n2c1C(=O)NC21CCCCC1` [Example 65, 8′-Methyl-6′-({6-[(1R,4R)-2-oxa-5-azabicyclo[2.2.1]hept-5-ylcarbonyl]thieno[2,3-d]pyrimidin-4-yl}amino)-2′H-spiro[cyclohexane-1,3′-imidazo[1,5-a]pyridine]-1′,5′-dione], which IC50 is on record?
A: Its IC50 is 0.0059 µM.

Q: `Cc1cc(Nc2ncnc3sc(C(=O)N4C[C@@H]5C[C@H]4CO5)cc23)c(=O)n2c1C(=O)NC21CCCCC1` [Example 66, 8′-Methyl-6′-({6-[(1S,4S)-2-oxa-5-azabicyclo[2.2.1]hept-5-ylcarbonyl]thieno[2,3-d]pyrimidin-4-yl}amino)-2′H-spiro[cyclohexane-1,3′-imidazo[1,5-a]pyridine]-1′,5′-dione] was tested. Which IC50 did it give?
A: The IC50 was 0.009 µM.

Q: With `Cc1cc(Nc2ncnc3[nH]cnc23)c(=O)n2c1C(=O)NC21CCCC1` [Example 67, 8′-methyl-6′-(9H-purin-6-ylamino)-2′H-spiro[cyclopentane-1,3′-imidazo[1,5-a]pyridine]-1′,5′-dione] as the compound, how does the IC50 read?
A: Its IC50 is 0.0007 µM.

Q: With `Cc1cc(Nc2ncnc3[nH]ncc23)c(=O)n2c1C(=O)NC21CCCC1` [Example 68, 8′-methyl-6′-(1H-pyrazolo[3,4-d]pyrimidin-4-ylamino)-2′H-spiro[cyclopentane-1,3′-imidazo[1,5-a]pyridine]-1′,5′-dione] as the compound, how does the IC50 read?
A: The IC50 was 0.0018 µM.

Q: How did the IC50 turn out when `Cc1cc(Nc2ncnc3c2CN(S(C)(=O)=O)C3)c(=O)n2c1C(=O)NC21CCCCC1` [Example 69, 8′-methyl-6′-{[6-(methylsulfonyl)-6,7-dihydro-5H-pyrrolo[3,4-d]pyrimidin-4-yl]amino}-2′H-spiro[cyclohexane-1,3′-imidazo[1,5-a]pyridine]-1′,5′-dione] was run?
A: The IC50 was 0.144 µM.

Q: Which IC50 does the source give for `Cc1cc(Nc2ncnc3c2CN(S(=O)(=O)c2ccccc2)C3)c(=O)n2c1C(=O)NC21CCCCC1` [Example 70, 8′-methyl-6′-{[6-(phenylsulfonyl)-6,7-dihydro-5H-pyrrolo[3,4-d]pyrimidin-4-yl]amino}-2′H-spiro[cyclohexane-1,3′-imidazo[1,5-a]pyridine]-1′,5′-dione] here?
A: Its IC50 is 0.0217 µM.

Q: For `Cc1cc(Nc2ncnc3c2CN(S(=O)(=O)C(F)F)C3)c(=O)n2c1C(=O)NC21CCCCC1` [Example 71, 6′-({6-[(difluoromethyl)sulfonyl]-6,7-dihydro-5H-pyrrolo[3,4-d]pyrimidin-4-yl}amino)-8′-methyl-2′H-spiro[cyclohexane-1,3′-imidazo[1,5-a]pyridine]-1′,5′-dione], which IC50 is on record?
A: Its IC50 is 0.0592 µM.

Q: Which IC50 does the source give for `Cc1cc(Nc2ncnc3c2CN(S(=O)(=O)C(F)(F)F)C3)c(=O)n2c1C(=O)NC21CCCCC1` [Example 72, 8′-methyl-6′-({6-[(trifluoromethyl)sulfonyl]-6,7-dihydro-5H-pyrrolo[3,4-d]pyrimidin-4-yl}amino)-2′H-spiro[cyclohexane-1,3′-imidazo[1,5-a]pyridine]-1′,5′-dione] here?
A: The IC50 was 0.0304 µM.

Q: How did the IC50 turn out when `Cc1cc(Nc2ncnc3c2CN(S(=O)(=O)CC(F)(F)F)C3)c(=O)n2c1C(=O)NC21CCCCC1` [Example 73, 8′-methyl-6′-({6-[(2,2,2-trifluoroethyl)sulfonyl]-6,7-dihydro-5H-pyrrolo[3,4-d]pyrimidin-4-yl}amino)-2′H-spiro[cyclohexane-1,3′-imidazo[1,5-a]pyridine]-1′,5′-dione] was run?
A: Its IC50 is 0.168 µM.

Q: With `Cc1cc(Nc2ncnc3sc(C(=O)N4CC(N)C4)cc23)c(=O)n2c1C(=O)NC21CCCC1` [Example 74, 6′-({6-[(3-Aminoazetidin-1-yl)carbonyl]thieno[2,3-d]pyrimidin-4-yl}amino)-8′-methyl-2′H-spiro[cyclopentane-1,3′-imidazo[1,5-a]pyridine]-1′,5′-dione] as the compound, how does the IC50 read?
A: The IC50 was 0.0015 µM.

Q: `CCNC(=O)N1Cc2ncnc(Nc3cc(C)c4n(c3=O)C3(CCCCC3)NC4=O)c2C1` [Example 75, N-Ethyl-4-[(8′-methyl-1′,5′-dioxo-1′,5′-dihydro-2′H-spiro[cyclohexane-1,3′-imidazo[1,5-a]pyridin]-6′-yl)amino]-5,7-dihydro-6H-pyrrolo[3,4-d]pyrimidine-6-carboxamide] was tested. Which IC50 did it give?
A: The IC50 was 0.0119 µM.

Q: For `CCOC(=O)N1Cc2ncnc(Nc3cc(C)c4n(c3=O)C3(CCCCC3)NC4=O)c2C1` [Example 76, Ethyl 4-[(8′-methyl-1′,5′-dioxo-1′,5′-dihydro-2′H-spiro[cyclohexane-1,3′-imidazo[1,5-a]pyridin]-6′-yl)amino]-5,7-dihydro-6H-pyrrolo[3,4-d]pyrimidine-6-carboxylate], which IC50 is on record?
A: Its IC50 is 0.0177 µM.

Q: For `Cc1cc(Nc2ncnc3c2CN(C(=O)[C@@H]2CCC(=O)N2)C3)c(=O)n2c1C(=O)NC21CCCCC1` [Example 77, 8′-Methyl-6′-[(6-{[(2S)-5-oxopyrrolidin-2-yl]carbonyl}-6,7-dihydro-5H-pyrrolo[3,4-cl]pyrimidin-4-yl)amino]-2′H-spiro[cyclohexane-1,3′-imidazo[1,5-a]pyridine]-1′,5′-dione], which IC50 is on record?
A: Its IC50 is 0.0559 µM.

Q: `CC(=O)N1Cc2ncnc(Nc3cc(C)c4n(c3=O)C3(CCCCC3)NC4=O)c2C1` [Example 78, 6′-[(6-Acetyl-6,7-dihydro-5H-pyrrolo[3,4-d]pyrimidin-4-yl)amino]-8′-methyl-2′H-spiro[cyclohexane-1,3′-imidazo[1,5-a]pyridine]-1′,5′-dione] was tested. Which IC50 did it give?
A: The IC50 was 0.0379 µM.

Q: With `Cc1cc(Nc2ncnc3c2CN(S(=O)(=O)c2ccccn2)C3)c(=O)n2c1C(=O)NC21CCCCC1` [Example 79, 8′-Methyl-6′-{[6-(pyridin-2-ylsulfonyl)-6,7-dihydro-5H-pyrrolo[3,4-d]pyrimidin-4-yl]amino}-2′H-spiro[cyclohexane-1,3′-imidazo[1,5-a]pyridine]-1′,5′-dione] as the compound, how does the IC50 read?
A: The IC50 was 0.122 µM.

Q: How did the IC50 turn out when `Cc1cc(Nc2ncnc3sc(C(=O)O)cc23)c(=O)n2c1C(=O)NC21CCC(F)(F)CC1` [Example 80, 4-[(4,4-Difluoro-8′-methyl-1′,5′-dioxo-1′,5′-dihydro-2′H-spiro[cyclohexane-1,3′-imidazo[1,5-a]pyridin]-6′-yl)amino]thieno[2,3-d]pyrimidine-6-carboxylic acid] was run?
A: Its IC50 is 0.126 µM.

Q: For `Cc1cc(Nc2ncnc3sc(C(=O)NCCN(C)C)cc23)c(=O)n2c1C(=O)NC21CCC(F)(F)CC1` [Example 81, 4-[(4,4-Difluoro-8′-methyl-1′,5′-dioxo-1′,5′-dihydro-2′H-spiro[cyclohexane-1,3′-imidazo[1,5-a]pyridin]-6′-yl)amino]-N-[2-(dimethylamino)ethyl]thieno[2,3-d]pyrimidine-6-carboxamide], which IC50 is on record?
A: Its IC50 is 0.005 µM.

Q: For `Cc1cc(Nc2ncnc3sc(C(=O)N(C)CCN(C)C)cc23)c(=O)n2c1C(=O)NC21CCC(F)(F)CC1` [Example 82, 4-[(4,4-Difluoro-8′-methyl-1′,5′-dioxo-1′,5′-dihydro-2′H-spiro[cyclohexane-1,3′-imidazo[1,5-a]pyridin]-6′-yl)amino]-N-[2-(dimethylamino)ethyl]-N-methylthieno[2,3-d]pyrimidine-6-carboxamide], which IC50 is on record?
A: Its IC50 is 0.0183 µM.

Q: How did the IC50 turn out when `Cc1cc(Nc2ncnc3sc(C(=O)N4CC(NC(=O)OC(C)(C)C)C4)cc23)c(=O)n2c1C(=O)NC21CCC(F)(F)CC1` [Example 83, tert-Butyl [1-({4-[(4,4-difluoro-8′-methyl-1′,5′-dioxo-1′,5′-dihydro-2′H-spiro[cyclohexane-1,3′-imidazo[1,5-a]pyridin]-6′-yl)amino]thieno[2,3-d]pyrimidin-6-yl}carbonyl)azetidin-3-yl]carbamate] was run?
A: Its IC50 is 0.0122 µM.

Q: `Cc1cc(Nc2ncnc3sc(C(=O)N4CC(N)C4)cc23)c(=O)n2c1C(=O)NC21CCC(F)(F)CC1` [Example 84, 6′-({6-[(3-Aminoazetidin-1-yl)carbonyl]thieno[2,3-d]pyrimidin-4-yl}amino)-4,4-difluoro-8′-methyl-2′H-spiro[cyclohexane-1,3′-imidazo[1,5-a]pyridine]-1′,5′-dione] was tested. Which IC50 did it give?
A: Its IC50 is 0.0108 µM.

Q: Which IC50 does the source give for `Cc1cc(Nc2ncnc3sc(C(=O)N4CC(C#N)C4)cc23)c(=O)n2c1C(=O)NC21CCC(F)(F)CC1` [Example 85, 1-({4-[(4,4-Difluoro-8′-methyl-1′,5′-dioxo-1′,5′-dihydro-2′H-spiro[cyclohexane-1,3′-imidazo[1,5-a]pyridin]-6′-yl)amino]thieno[2,3-d]pyrimidin-6-yl}carbonyl)azetidine-3-carbonitrile] here?
A: Its IC50 is 0.0252 µM.

Q: With `Cc1cc(Nc2ncnc3sc(C(=O)N4CC[C@@H](N(C)C)C4)cc23)c(=O)n2c1C(=O)NC21CCC(F)(F)CC1` [Example 86, 6′-[(6-{[(3R)-3-(Dimethylamino)pyrrolidin-1-yl]carbonyl}thieno[2,3-d]pyrimidin-4-yl)amino]-4,4-difluoro-8′-methyl-2′H-spiro[cyclohexane-1,3′-imidazo[1,5-a]pyridine]-1′,5′-dione] as the compound, how does the IC50 read?
A: Its IC50 is 0.0119 µM.
